These results are taken from US11730759B1, “Sulfasalazine-loaded zinc oxide nanoparticles for the treatment of ulcerative colitis” (priority 2023, dated 2023).

Molecules are shown by their SMILES.

The test system of the assay is ulcerative colitis (UC) rats. It is filed as in vivo. The note with it: sulfasalazine 100 mg/kg P.O., loaded ZnONPs 100 mg/kg P.O. containing 12.2 mg sulfasalazine/kg. As to the method:
Forty male albino rats were randomly divided into four groups (n=10 rats), with all groups were treated for 7 days, as follows:
Group 1: Rats received saline daily for 21 consecutive days by rectal catheter and served as the normal control group (negative control).
Group 2: The disease group received 1 ml acetic acid 3% for three days and served as the ulcerative colitis (UC) control group (positive control).
Group 3: In the standard group, rats received free sulfasalazine (100 mg/kg; P.O. i.e., about 20 mg/rat 200 g) after induction of UC by acetic acid 3% as in group 2.
Group 4: The treatment group, where UC rats received the dose of ZnONPs loaded sulfasalazine (100 mg/kg; P.O. of the ZnONPs) containing 12.2 mg sulfasalazine/kg; P.O.
Markers estimated: • Macroscopic examination of colonic mucosa. • Inflammatory mediators such as tumor necrosis factor-α (TNF-α), interleukin 1beta (IL 1B), malondialdehyde (MBA), reduced glutathione (GSH), superoxide dismutase (SOD), caspase-1, and cyclooxygenase-2 (COX2). • Inflammatory mediators are estimated by ELIZA.

For the molecule `O=C(O)c1cc(/N=N/c2ccc(S(=O)(=O)Nc3ccccn3)cc2)ccc1O` [sulfasalazine], the “overall effect on ulcerative colitis (inflammatory mediators, healing) relative to other treatments” value is given as “lower than that observed for Group 4”.
